Laboratory results: patent US7345070B2, “Peroxisome proliferator activated receptor agonists” (Eli Lilly and Company, priority 2000, dated 2008)

target: T1, huPPARγ (Homo sapiens, UniProt P37231); test: Cotransfection assay in CV-1 cells, huPPARγ; assay type: cell-based; design: Appropriate PPARs and RXRα were constitutively expressed using plasmids containing the CMV promoter; expressed in transfected cells; host or cells: CV-1 cells; conditions: AOX PPRE luciferase reporter, relative to PPARγ agonist reference molecule, read-out: huPPARγ CTF Efficacy
T1 sequence (P37231 1-505): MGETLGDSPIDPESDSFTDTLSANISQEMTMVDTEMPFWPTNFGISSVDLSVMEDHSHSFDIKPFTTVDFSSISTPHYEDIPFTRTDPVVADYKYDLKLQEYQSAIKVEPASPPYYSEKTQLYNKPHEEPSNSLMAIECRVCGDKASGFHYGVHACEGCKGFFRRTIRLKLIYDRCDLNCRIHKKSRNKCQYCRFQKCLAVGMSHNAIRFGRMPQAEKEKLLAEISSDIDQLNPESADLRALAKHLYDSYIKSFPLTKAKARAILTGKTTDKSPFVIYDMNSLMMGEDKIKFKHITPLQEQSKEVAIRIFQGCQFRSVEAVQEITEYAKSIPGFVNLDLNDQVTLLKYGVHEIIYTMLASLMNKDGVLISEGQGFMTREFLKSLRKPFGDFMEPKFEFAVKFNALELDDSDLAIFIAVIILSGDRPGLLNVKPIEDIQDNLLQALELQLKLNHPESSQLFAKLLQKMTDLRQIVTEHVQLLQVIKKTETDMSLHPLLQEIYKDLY
T1 sequence (P19793 1-462 partner): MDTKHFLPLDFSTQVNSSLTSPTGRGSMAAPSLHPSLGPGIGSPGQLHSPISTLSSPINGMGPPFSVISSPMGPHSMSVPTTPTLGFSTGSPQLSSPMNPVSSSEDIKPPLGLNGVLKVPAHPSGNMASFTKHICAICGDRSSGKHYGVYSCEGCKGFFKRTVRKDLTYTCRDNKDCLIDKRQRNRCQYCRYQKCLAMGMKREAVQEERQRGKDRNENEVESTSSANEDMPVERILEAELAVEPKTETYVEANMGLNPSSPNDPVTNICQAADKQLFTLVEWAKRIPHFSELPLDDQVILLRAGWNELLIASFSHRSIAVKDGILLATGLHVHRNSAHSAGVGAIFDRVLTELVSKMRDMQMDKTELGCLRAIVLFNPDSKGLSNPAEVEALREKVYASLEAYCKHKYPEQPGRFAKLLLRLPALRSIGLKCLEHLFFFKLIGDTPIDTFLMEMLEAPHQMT
Method: DNA-dependent binding (ABCD binding) was carried out using SPA technology with PPAR receptors. Tritium-labeled PPARα and PPARγ agonists were used as radioligands for generating displacement curves and IC50 values with compounds of the invention. Cotransfection assays were carried out in CV-1 cells. The reporter plasmid contained an acylCoA oxidase (AOX) PPRE and TK promoter upstream of the luciferase reporter cDNA. Appropriate PPARs and RXRα were constitutively expressed using plasmids containing the CMV promoter. […] In order to eliminate such interference, a GAL4 chimeric system was used in which the DNA binding domain of the transfected PPAR was replaced by that of GAL4, and the GAL4 response element was utilized in place of the AOX PPRE. Cotransfection efficacy was determined relative to PPARα agonist and PPARγ agonist reference molecules. Efficacies were determined by computer fit to a concentration-response curve, or in some cases at a single high concentration of agonist (10 μM). For binding or cotransfection studies with receptors other than PPARs, similar assays were carried out using appropriate ligands, receptors, reporter constructs, etc., for that particular receptor.
These studies were carried out to evaluate the ability of compounds of the invention to bind to and/or activate various nuclear transcription factors, particularly huPPARα (“hu” indicates “human”) and huPPARγ. These studies provide in vitro data concerning efficacy and selectivity of compounds of the invention. Furthermore, binding and cotransfection data for compounds of the invention were compared with corresponding data for marketed compounds that act on either huPPARα or huPPARγ.

Row | SMILES | Emax
1 | Cc1oc(-c2cccc(Br)c2)nc1CCOc1ccc(CC(C)(Oc2ccccc2)C(=O)O)cc1 (stereo not shown) [Example 8, 3-(4-{2-[2-(3-Bromophenyl)-5-methyloxazol-4-yl]ethoxy}phenyl)-2-methyl-2-phenoxypropionic acid] | 75%
2 | Cc1oc(C2(C)CCCCC2)nc1CCOc1ccc(CC(C)(Oc2ccccc2)C(=O)O)cc1 (stereo not shown) [Example 9, 2-Methyl-3-(4-{2-[5-methyl-2-(1-methylcyclohexyl)oxazol-4-yl]ethoxy}phenyl)-2-phenoxypropionic acid] | 73%
3 | Cc1oc(-c2cccs2)nc1CCOc1ccc(CC(C)(Oc2ccc(C(C)(C)C)cc2)C(=O)O)cc1 (stereo not shown) [Example 17, 2-Methyl-3-{4-[2-(5-methyl-2-thiophen-2-yl-oxazol-4-yl)-ethoxy]-phenyl}-2-(4-tert-butylphenoxy)-propionic acid] | 105%
4 | Cc1oc(C2CCCCC2)nc1CCOc1ccc(CC(C)(Oc2ccc(C(C)(C)C)cc2)C(=O)O)cc1 (stereo not shown) [Example 18, 2-Methyl-3-(4-{2-[5-methyl-2-cyclohexylyl-oxazol-4-yl]-ethoxy}-phenyl)-2-(4-tert-butylphenoxy)-propionic acid] | 112%
5 | Cc1oc(C2CCCCC2)nc1CCOc1ccc(CC(C)(Oc2cccc(F)c2)C(=O)O)cc1 (stereo not shown) [Example 23, 2-(3-Fluoro-phenoxy)-2-methyl-3-{4-[2-(5-methyl-2-cyclohexyl-oxazol-4-yl)-ethoxy]-phenyl}-propionic acid] | 17%
6 | Cc1oc(-c2cccs2)nc1CCOc1ccc(CC(C)(Oc2cccc(C(C)(C)C)c2)C(=O)O)cc1 (stereo not shown) [Example 25, 2-(3-tert-Butyl-phenoxy)-2-methyl-3-{4-[2-(5-methyl-2-thiophen-2-yl-oxazol-4-yl)-ethoxy]-phenyl}-propionic acid] | 106%
7 | Cc1oc(-c2cccs2)nc1CCOc1ccc(CC(C)(Oc2ccccc2F)C(=O)O)cc1 (stereo not shown) [Example 27, 2-(2-Fluoro-phenoxy)-2-methyl-3-{4-[2-(5-methyl-2-thiophen-2-yl-oxazol-4-yl)-ethoxy]-phenyl}-propionic acid] | 15%
8 | Cc1oc(C2CCCCC2)nc1CCOc1ccc(CC(C)(Oc2ccc(C3CCCCC3)cc2)C(=O)O)cc1 (stereo not shown) [Example 34, 3-{4-[2-(2-Cyclohexyl-5-methyl-oxazol-4-yl)-ethoxy]-phenyl}-2-(4-cyclohexyl-phenoxy)-2-methyl-propionic acid] | 76%
9 | Cc1ccc(OC(C)(Cc2ccc(OCCc3nc(C4CCCCC4)oc3C)cc2)C(=O)O)cc1C (stereo not shown) [Example 35, 3-{4-[2-(2-Cyclohexyl-5-methyl-oxazol-4-yl)-ethoxy]-phenyl}-2-(3,4-dimethyl-phenoxy)-2-methyl-propionic acid] | 21%
10 | Cc1oc(C2CCCCC2)nc1CCOc1ccc(CC(C)(Oc2ccc(OC(F)(F)F)cc2)C(=O)O)cc1 (stereo not shown) [Example 44, 3-{4-[2-(2-Cyclohexyl-5-methyl-oxazol-4-yl)-ethoxy]-phenyl}-2-methyl-2-(4-trifluoromethoxy-phenoxy)-propionic acid] | 73%
11 | Cc1oc(C2CCCCC2)nc1CCOc1ccc(CC(C)(Oc2ccc(C(F)(F)F)cc2)C(=O)O)cc1 (stereo not shown) [Example 52, 3-{4-[2-(2-Cyclohexyl-5-methyl-oxazol-4-yl)-ethoxy]-phenyl}-2-methyl-2-(4-trifluoromethyl-phenoxy)-propionic acid] | 61%
12 | Cc1oc(C2CCCCC2)nc1CCOc1ccc(CC(C)(Oc2ccc(F)cc2)C(=O)O)cc1 (stereo not shown) [Example 65, 3-{4-[2-(2-Cyclohexyl-5-methyl-oxazol-4-yl)-ethoxy]-phenyl}-2-(4-fluoro-phenoxy)-2-methyl-propionic acid] | 24%

Continued, values first:

Row | Emax | SMILES
13 | 23% | COc1ccc(OC(C)(Cc2ccc(OCCc3nc(-c4cccs4)oc3C)cc2)C(=O)O)cc1 (stereo not shown) [Example 19, 2-Methyl-3-{4-[2-(5-methyl-2-thiophen-2-yl-oxazol-4-yl)-ethoxy]-phenyl}-2-(4-methoxyphenoxy)-propionic acid]
14 | 12% | Cc1oc(-c2cccs2)nc1CCOc1ccc(CC(C)(Oc2cccc(F)c2)C(=O)O)cc1 (stereo not shown) [Example 22, 2-(3-Fluoro-phenoxy)-2-methyl-3-{4-[2-(5-methyl-2-thiophen-2-yl-oxazol-4-yl)-ethoxy]-phenyl}-propionic acid]
15 | 82% | Cc1oc(-c2ccccc2)nc1CCOc1ccc(CC(C)(Oc2ccc(Cl)cc2)C(=O)O)cc1 (stereo not shown) [Example 29, 2-(4-Chloro-phenoxy)-2-methyl-3-{4-[2-(5-methyl-2-phenyl-oxazol-4-yl)-ethoxy]-phenyl}-propionic acid]
16 | 21% | Cc1ccc(OC(C)(Cc2ccc(OCCc3nc(-c4cccs4)oc3C)cc2)C(=O)O)cc1C (stereo not shown) [Example 36, 2-(3,4-Dimethyl-phenoxy)-2-methyl-3-{4-[2-(5-methyl-2-thiophen-2-yl-oxazol-4-yl)-ethoxy]-phenyl}-propionic acid]
17 | 110% | Cc1ccc(OC(C)(Cc2ccc(OCCc3nc(-c4cccs4)oc3C)cc2)C(=O)O)cc1 (stereo not shown) [Example 40, 2-Methyl-3-{4-[2-(5-methyl-2-thiophen-2-yl-oxazol-4-yl)-ethoxy]-phenyl}-2-p-tolyloxy-propionic acid]
18 | 11% | Cc1ccc(OC(C)(Cc2ccc(OCCc3nc(C4CCCCC4)oc3C)cc2)C(=O)O)cc1 (stereo not shown) [Example 41, 3-{4-[2-(2-Cyclohexyl-5-methyl-oxazol-4-yl)-ethoxy]-phenyl}-2-methyl-2-p-tolyloxy-propionic acid]
19 | 48% | Cc1oc(-c2cccs2)nc1CCOc1ccc(CC(C)(Oc2ccc(C(F)(F)F)cc2)C(=O)O)cc1 (stereo not shown) [Example 51, 2-Methyl-3-{4-[2-(5-methyl-2-thiophen-2-yl-oxazol-4-yl)-ethoxy]-phenyl}-2-(4-trifluoromethyl-phenoxy)-propionic acid]
20 | 41% | Cc1oc(C2CCCCC2)nc1CCOc1ccc(CC(C)(Oc2ccc(F)c(F)c2)C(=O)O)cc1 (stereo not shown) [Example 58, 3-{4-[2-(2-Cyclohexyl-5-methyl-oxazol-4-yl)-ethoxy]-phenyl}-2-(3,4-difluoro-phenoxy)-2-methyl-propionic acid]
21 | 12% | Cc1cccc(OC(C)(Cc2ccc(OCCc3nc(-c4cccs4)oc3C)cc2)C(=O)O)c1 (stereo not shown) [Example 61, 2-Methyl-3-{4-[2-(5-methyl-2-thiophen-2-yl-oxazol-4-yl)-ethoxy]-phenyl}-2-m-tolyloxy-propionic acid]
22 | 35% | Cc1cccc(OC(C)(Cc2ccc(OCCc3nc(C4CCCCC4)oc3C)cc2)C(=O)O)c1 (stereo not shown) [Example 62, 3-{4-[2-(2-Cyclohexyl-5-methyl-oxazol-4-yl)-ethoxy]-phenyl}-2-methyl-2-m-tolyloxy-propionic acid]
23 | 11% | Cc1oc(-c2cccs2)nc1CCOc1ccc(CC(C)(Oc2ccc(F)cc2)C(=O)O)cc1 (stereo not shown) [Example 64, 2-(4-Fluoro-phenoxy)-2-methyl-3-{4-[2-(5-methyl-2-thiophen-2-yl-oxazol-4-yl)-ethoxy]-phenyl}-propionic acid]
24 | 11% | Cc1oc(C2(C)CCCCC2)nc1CCOc1ccc(C[C@](C)(Oc2ccc(F)cc2)C(=O)O)cc1 [Example 67, (S)-2-(4-Fluoro-phenoxy)-2-methyl-3-(4-{2-[5-methyl-2-(1-methyl-cyclohexyl)-oxazol-4-yl]-ethoxy}-phenyl)-propionic acid]
25 | 50% | Cc1oc(-c2cccs2)nc1CCOc1ccc(CC(C)(Oc2cccc(C(F)(F)F)c2)C(=O)O)cc1 (stereo not shown) [Example 71, 2-Methyl-3-{4-[2-(5-methyl-2-thiophen-2-yl-oxazol-4-yl)-ethoxy]-phenyl}-2-(3-trifluoromethyl-phenoxy)-propionic acid]
